Source: paper PMC4401630 (Clinical cancer research : an official journal of the …, 2015)
“And” between values parts separate entries of the source, which are not always exact repeats. Identical values can stand only once.

Columns and labels:
[1] = tested on: phospho-mTOR Ser2448 (pMTOR); assay: Immunohistochemistry of paired tumor tissues; format: in vivo, human; conditions: mean (±SD)
[2] = tested on: resectable non-small cell lung cancer (NSCLC); assay: Anatomic response, tumor size; format: in vivo, human
[3] = tested on: phospho-S6 Ser235/236 (pS6); assay: Immunohistochemistry of paired tumor tissues; format: in vivo, human; conditions: mean (±SD)
BCL2L-11 gene = assay: Gene expression profiling by RNA-Seq, baseline vs post-treatment tumor; format: in vivo, human; conditions: responder with sarcomatoid NSCLC, 10mg everolimus
[4] = Everolimus pharmacokinetic analysis in whole blood; conditions: for Tmax: NSCLC patients
[5] = tested on: phospho-eIF4E Ser209 (pe1f4e); assay: Immunohistochemistry of paired tumor tissues; format: in vivo, human; conditions: mean (±SD)
[6] = tested on: resectable non-small cell lung cancer (NSCLC); assay: Metabolic response on paired 18F-FDG PET/CT; format: in vivo, human; conditions: for Change in metabolic activity (SUVmax): up to 28 days, control 29.0%; for Change in metabolic activity (SUVmax) / Mean reduction in SUVmax (percent change of initial SUVmax): p=0.014; for Mean reduction in SUVmax (percent change of initial SUVmax): control mean increase of 29%
Bim = assay: Immunohistochemistry of tumor tissues; conditions: for BIM expression immunoscore in post-treatment samples: control 48.6
[7] = tested on: phospho-Akt Ser473 (pAKT); assay: Immunohistochemistry of tumor tissues; format: in vivo, human
pS6/S6 = assay: Immunohistochemistry of paired tumor tissues; format: in vivo, human; conditions: mean (±SD)
[8] = tested on: phospho-4E-BP1 Thr37/46 (p4E-BP1); assay: Immunohistochemistry of paired tumor tissues; format: in vivo, human; conditions: mean (±SD)
S6 = assay: Immunohistochemistry of paired tumor tissues; format: in vivo, human; conditions: mean (±SD)
[9] = Safety: treatment-emergent adverse events; format: in vivo, human
p70S6K = assay: Immunohistochemistry of paired tumor tissues; format: in vivo, human; conditions: mean (±SD)
[10] = dose of everolimus 5, listed as Everolimus
[11] = dose of everolimus 10, listed as Everolimus
[12] = human, whole blood, oral, 10 mg
[13] = dose of everolimus 10, mean (±SD)

## CO[C@H]1C[C@@H]2CC[C@@H](C)[C@@](O)(O2)C(=O)C(=O)N2CCCC[C@H]2C(=O)O[C@H]([C@H](C)C[C@@H]2CC[C@@H](OCCO)[C@H](OC)C2)CC(=O)[C@H](C)/C=C(\C)[C@@H](O)[C@@H](OC)C(=O)[C@H](C)C[C@H](C)/C=C/C=C/C=C/1C [everolimus]
[1]; dose of everolimus 5
  pMTOR percent change in immunoscore, post-treatment relative to baseline: 30 (± 153.95) %
[1]; dose of everolimus 10
  pMTOR percent change in immunoscore, post-treatment relative to baseline: −63.82 (± 51.3) %
[2]; 5mg everolimus
  Patients achieving SD (RECIST): 82%
  Patients with best response of PD (RECIST): 18%
[2]; 10mg cohort, control 10.1%, p=0.047
  Change in tumor size: −11.6%
[2]; 10mg everolimus group
  Patients meeting RECIST criteria for partial response: 9%
  Patients with SD (RECIST): 91%
[2]; 10mg everolimus group, partial response
  Tumor shrinkage in partial response: 30%
[3]; dose of everolimus 5
  pS6 percent change in immunoscore, post-treatment relative to baseline: −61.57%
[3]; [10]
  pS6 percent change in immunoscore, post-treatment relative to baseline: −61.57 (± 35.8) %
[3]; dose of everolimus 10
  pS6 percent change in immunoscore, post-treatment relative to baseline: −47.21%
[3]; [11]
  pS6 percent change in immunoscore, post-treatment relative to baseline: −47.21 (± 44.96) %
BCL2L-11 gene
  Increase in BCL2L-11 gene (BIM) expression, post-treatment vs baseline sample: 6 fold
[4]; 5 mg daily (n=12), whole blood
  Tmax: 2 (1 – 2) hr.
[4]; 10 mg daily (n=7), whole blood
  Day 21 Cmax: 51.5 ± 9.9 ng/mL
  Tmax: 2 (1 – 2) hr.
[4]; at either dose level (5mg, 10mg), days 8 and 21 vs day 1
  Accumulation: no significant accumulation
[4]; human, whole blood, oral, 5 mg
  concentration at 8 day: 6.3 ± 2.9 ng/mL
  concentration at 21 day: 5.7 ± 2.3 ng/mL
  half-life: 26.5 h
[4]; human, whole blood, oral, 5 mg, Day 1 Cmax, 5 mg daily (n=12), whole blood
  Cmax: 29.2 ± 9.9 ng/mL
[4]; human, whole blood, oral, 5 mg, Day 8 Cmax, 5 mg daily (n=12), whole blood
  Cmax: 42.1 ± 17.2 ng/mL
[4]; human, whole blood, oral, 5 mg, Day 21 AUC0-24, 5 mg daily (n=12), whole blood
  AUC(0-t): 205 ± 87.4 ng·h/mL
[4]; [12]
  concentration at 8 day: 17.8 ± 7.6 ng/mL
  concentration at 21 day: 13.7 ± 9.2 ng/mL
[4]; human, whole blood, oral, 10 mg, Day 8 AUC0-24, 10 mg daily (n=7), whole blood
  AUC(0-t): 579 ± 186 ng·h/mL
[4]; human, whole blood, oral, 10 mg, Day 21 AUC0-24, 10 mg daily (n=7), whole blood
  AUC(0-t): 506 ± 208 ng·h/mL
[5]; dose of everolimus 5
  pe1f4e percent change in immunoscore, post-treatment relative to baseline: 2.78 (± 5.56) %
[5]; dose of everolimus 10
  pe1f4e percent change in immunoscore, post-treatment relative to baseline: −27.13 (± 42.17) %
[6]; 5mg cohort
  Change in metabolic activity (SUVmax): −21%
[6]; 5mg everolimus group
  Partial metabolic response (PMR) rate, PERCIST: 36%
  Stable metabolic disease (SMD) rate, PERCIST: 64%
[6]; 10mg cohort
  Change in metabolic activity (SUVmax): −24%
[6]; 10mg everolimus group
  Partial metabolic response (PMR) rate, PERCIST: 50%
  Stable metabolic disease (SMD) rate, PERCIST: 50%
[6]; RAS mutant tumors treated with everolimus (10mg), control 88% increase, p=0.218
  Reduction in mean metabolic activity, RAS mutant tumors: 30%
[6]; everolimus 5mg
  Mean reduction in SUVmax (percent change of initial SUVmax): 21%
[6]; everolimus 10mg
  Mean reduction in SUVmax (percent change of initial SUVmax): 24%
[6]; everolimus (10mg) group, control 12% increase, p=0.039
  Reduction in metabolic activity, non-RAS mutant tumors: 21%
[6]; one patient, sarcomatoid NSCLC, 10mg everolimus for 3 weeks
  Reduction in SUVmax, single patient (near complete metabolic response): 74%
Bim; 5mg everolimus
  BIM expression immunoscore in post-treatment samples: 84.3
Bim; 10mg everolimus
  BIM expression immunoscore in post-treatment samples: 80.5
Bim; [13]
  Bim percent change in immunoscore, post-treatment relative to baseline: −21.76 (± 60.07) %
Bim; post-treatment samples, treated patients vs control
  BIM expression immunoscore, treated compared to control patients: ~2 fold
[7]; 5 mg cohort, baseline 0.3
  Unmatched mean immunoscore, nuclear pAKT staining, post-treatment: 15
[7]; 5 mg cohort, baseline 13.1
  Unmatched mean immunoscore, cytoplasmic pAKT staining, post-treatment: 47.5
[7]; 10 mg cohort, baseline 0.01
  Unmatched mean immunoscore, nuclear pAKT staining, post-treatment: 4.4
[7]; 10 mg cohort, baseline 0.42
  Unmatched mean immunoscore, cytoplasmic pAKT staining, post-treatment: 2.34
[7]; [13]
  PAKT Nuclear percent change in immunoscore, post-treatment relative to baseline: 0 (± 0) %
pS6/S6; dose of everolimus 5
  pS6/S6 percent change, post-treatment relative to baseline: −100 (±NA) %
pS6/S6; dose of everolimus 10
  pS6/S6 percent change, post-treatment relative to baseline: 128.57 (± 219.26) %
[8]; dose of everolimus 5
  p4E-BP1 percent change in immunoscore, post-treatment relative to baseline: 150 (±NA) %
[8]; dose of everolimus 10
  p4E-BP1 percent change in immunoscore, post-treatment relative to baseline: −78.75 (± 14.36) %
S6; dose of everolimus 5
  S6 percent change in immunoscore, post-treatment relative to baseline: −13.7%
S6; [10]
  S6 percent change in immunoscore, post-treatment relative to baseline: −13.69 (± 144.05) %
S6; dose of everolimus 10
  S6 percent change in immunoscore, post-treatment relative to baseline: −77.0% and −77.03%
S6; [11]
  S6 percent change in immunoscore, post-treatment relative to baseline: −77.03 (± 16.02) %
[9]; CTCAE version 3, patients treated with everolimus (5 or 10 mg daily)
  MRSA Bacteremia, Grade 3: 1
[9]; in vivo
  Median length of hospital stay (LOS) after resection: 5 days
  Range of length of hospital stay (LOS) after resection: 3 to 43 days
p70S6K; dose of everolimus 5
  p70s6k percent change in immunoscore, post-treatment relative to baseline: 137.14 (± 442.07) %
p70S6K; dose of everolimus 10
  p70s6k percent change in immunoscore, post-treatment relative to baseline: −78.62 (± 22.79) %
